In paper PMC8467577, “Infection Responsive Smart Delivery of Antibiotics Using Recombinant Spider Silk Nanospheres” (Pharmaceutics, 2021):
Peptide text beside a SMILES is read from it.

How the values were obtained:
[1] = Critical aggregation concentration by pyrene fluorescence; assay type: physicochemical; settings: pyrene fluorescence I1/I3 (379/393 nm), phosphate buffer, sonicated 5 min, incubated 1 h
Method: The critical aggregation concentration (CAC) of silk was determined by the pyrene fluorescence method. Briefly, 20 µL of 24 µg/mL (working concentration) of a pyrene solution was prepared in acetone and acetone was evaporated. Later, 980 µL of silk peptide in the phosphate buffer at different concentrations was then added to the pyrene, and the mixture was sonicated for 5 min and incubated for 1 h. The fluorescence spectra of the samples were recorded at an excitation of 336 nm and emission of 360–450 nm wavelengths. Intensity peaks at 379 nm (I1) and 393 nm (I3) were recorded. The ratio of I1/I3 was plotted against log concentration, and the point where a sharp inclination in the graph was noted as the CAC.

[2] = system: bacterial thrombin-like enzyme (media from an actively growing S. aureus culture); experiment: Susceptibility to spent S. aureus culture media (HPLC); settings: for degradation of silk protein in S. aureus bacterial media: 48 h, different concentrations of spent bacterial media vs control without media, 37 °C, HPLC area under the curve
Method: (§1) The thrombin-sensitive peptide, […] (TSP), was custom synthesized by standard Fmoc synthesis (WatsonBio, Houston, TX, USA). The susceptibility of the peptide to the bacterial thrombin-like enzyme was assessed by exposing the peptide to media from an actively growing S. aureus culture. Enzymatic activity of the media was initially determined by titrating culture exudate into a fluorogenic thrombin substrate, Boc-Val-Pro-Arg-MCA (Sigma Aldrich, St. Louis, MO, USA). TSP was then exposed to the media with varying enzymatic activity and incubated at 37 °C with shaking. The sample was analyzed with HPLC (mobile phase 0.1% TFA/water (A) 0.1% TFA/Acetonitrile (B), under a gradient flow of 5–90% at a flow rate of 1.0 mL/min) every 12 h through 48 h. Protein was detected at a wavelength of 215 nm. A similar experiment was conducted with the recombinant spider silk to check the susceptibility of the silk protein to the bacterial enzyme.

[3] = system: thrombin; settings: releasing gentamicin linked to a polyvinyl alcohol (PVA) support matrix; cited from earlier work
Source text: Strategies utilizing microenvironments unique to tissues and disease states as a molecular cue to activate drug release has gained widespread attention in the treatment of various diseases like cancer, diabetes, and bacterial infections as it increases drug stability and therapeutic efficacy while decreasing toxic side effects at the same time. Several enzymes including a thrombin-like enzyme in S. aureus, myeloperoxidase in Candida, and esterases in uropathogens were reported to be elevated during infection, whereas virulence factors for certain bacteria like b ...

[4] = Exposure to human serum (HPLC); assay type: in vitro ADME
Source text: Frequent and inappropriate usage of antibiotics has changed the natural evolution of bacteria by reducing susceptibility and increasing resistance towards antibacterial agents. New resistance mechanisms evolved in the response to host defenses and pharmaceutical interventions are threatening our ability to treat common infections, resulting in increased mortality. In the face of this rising epidemic, antibiotic drug discovery, which has long been overlooked by big pharma, is reaching a critical low. Thus, the development of an infection-responsive drug delivery system, which may mitigate multidrug resistance and preserve the lifetime of our current antibiotic arsenal, has garnered the attention of both popular science and funding agencies. The present work describes the development of a thrombin-sensitive linker embedded into a recombinant spider silk copolymer to create a nanosphere drug delivery vehicle. […] A thrombin sensitive peptide (TSP) was synthesized, and the thrombin cleavage sensitivity was determined by HPLC. […] Subsequently, the peptide was coupled with a silk copolymer via EDC-NHS chemistry and formulated into nanospheres encapsulating antibiotic vancomycin. These nanospheres were evaluated for in vitro infection-responsive drug release and antimicrobial activity. Finally, the drug responsive nanospheres were assessed for efficacy in an in vivo septic arthritis model. […]

[5] = water control, HPLC
Method: as §1
(§2) The susceptibility of the TSP to the bacterial thrombin-like enzyme was assessed by exposing the peptide to media from an actively growing S. aureus culture. Enzymatic activity of the bacterial culture was determined by a fluorogenic thrombin substrate, Boc-Val-Pro-Arg-MCA. TSP was initially titrated into media with varying enzymatic activity to determine the amount of enzyme required to cleave the peptide.

[6] = molecular target: human thrombin (Homo sapiens, UniProt P00734)
Method: as §1, §2

[7] = system: S. aureus; settings: standard ZOI values of the free drug for SA; ref not given; cited from earlier work
Method: To explore the potential efficacy of this delivery system for the treatment of S. aureus septic arthritis, the antibacterial effect of Vancomycin-loaded nanospheres was first tested in vitro on Staphylococcus aureus. […] Once the MIC was established, antibacterial activity was tested by a Kirby Bauer Zone of Inhibition assay.

[8] = system: S. aureus infected knee joint; experiment: In vivo septic arthritis model, H&E histopathology of knee joint; parameters: species or system Sprague Dawley rats; settings: H&E staining, 48 h after local treatment
Method: After establishing the septic arthritis disease model, treatment with either free drug, drug-loaded conjugate particles, or drug-loaded silk particles was given on day two after bacterial inoculation. Rats were divided into three treatment groups (Table 1). The first group received drug-loaded (14 mg/kg) conjugate nanoparticles in the infected knee locally delivered into the synovial joint space while the uninfected knee was injected with unloaded conjugate nanoparticles. The second group received drug-loaded plain silk SX2 particles into the infected knee while the uninfected knee was injected with unloaded SX2 particles. The third group received a free drug into the infected knee joint and sterile PBS into the uninfected knee. The treatment was continued for 48 h after which rats were euthanized and limbs were collected for histopathological analysis. Before euthanasia, synovial fluid was collected from the joint space of the infected knee and the control knee of all the groups and cultured on LB agar plates overnight. After incubation overnight, the number of colonies were counted.
Histopathology was performed on the infected and uninfected bones by hematoxylin and eosin (H and E) stain. Initially the bones were harvested from the rat after euthanasia and fixed in 10% neutral buffered formalin for 72 h. […]

## (GGYGPGQQGPGGYGPGQQGPSGPGSAAAAAAAA)2 [silk]
[1]
  critical aggregation concentration (CAC): 1.2 mg/mL
[2]; listed as silk peptide
  degradation of silk protein in S. aureus bacterial media: stability of the peptide even after 48 h
[2]; listed as silk protein
  degradation of silk protein in S. aureus bacterial media: no significant difference in the degradation

## GFDPRGFPAGG
[3]
  time to complete cleavage: ≤ 15 min

## C[C@H](NC(=O)[C@@H]1CCCN1C(=O)[C@H](Cc1ccccc1)NC(=O)CNC(=O)[C@H](CCCNC(=N)N)NC(=O)[C@@H]1CCCN1C(=O)[C@H](CC(=O)O)NC(=O)[C@H](Cc1ccccc1)NC(=O)CNC(=O)[C@H](CCCCN)NC(=O)[C@H](CC(=O)O)NC(=O)[C@H](CC(=O)O)NC(=O)[C@H](CC(=O)O)NC(=O)[C@H](CC(=O)O)NC(=O)[C@H](Cc1c[nH]cn1)NC(=O)[C@H](Cc1c[nH]cn1)NC(=O)[C@H](Cc1c[nH]cn1)NC(=O)[C@H](Cc1c[nH]cn1)NC(=O)[C@H](Cc1c[nH]cn1)NC(=O)[C@@H](N)Cc1c[nH]cn1)C(=O)NCC(=O)NCC(=O)O [TSP] (H-HHHHHHDDDDKGFDPRGFPAGG-OH)
[4]
  cleavage on exposure to human serum: no cleavage
[5]; 24 h exposure, n = 3
  stability in water after 24 h: intact
[5]; data not shown
  stability in water: still intact
[6]
  degradation in human thrombin after 48 h: minimal degradation
  stability to human thrombin: still intact
  stability to human thrombin after 24 h: intact
[2]; S. aureus exudate, HPLC
  cleavage on incubation with S. aureus exudate: cleaved
[2]; media from actively growing S. aureus culture, enzymatic activity 23 a.u., 37 °C with shaking, HPLC 215 nm every 12 h through 48 h
  time to cleavage of the peptide in S. aureus bacterial media: ≤ 12 h

## CN[C@H](CC(C)C)C(=O)N[C@H]1C(=O)N[C@@H](CC(N)=O)C(=O)N[C@H]2C(=O)N[C@H]3C(=O)N[C@H](C(=O)N[C@H](C(=O)O)c4cc(O)cc(O)c4-c4cc3ccc4O)[C@H](O)c3ccc(c(Cl)c3)Oc3cc2cc(c3O[C@@H]2O[C@H](CO)[C@@H](O)[C@H](O)[C@H]2O[C@H]2C[C@](C)(N)[C@H](O)[C@H](C)O2)Oc2ccc(cc2Cl)[C@H]1O [vancomycin-free drug, vancomycin]
[7]
  standard ZOI value: > 12 mm
[8]
  histopathological findings in infected joint: similar, if not more inflamed, appearance
